This note sets out measurements from ChEMBL document CHEMBL1129701, “-Vinyllysine and -vinylarginine are time-dependent inhibitors of their cognate decarboxylases” (Bioorg Med Chem Lett, 1996).

The nature of series [1]: Half life was reported. Type of series: ADME.
Series [2] can be described thus: Compound was evaluated for binding affinity towards L-arginine decarboxylase (ADC) from Escherichia coli in UV time dependent assay.
For series [3], the system named is Escherichia coli. In words: Rate of inactivation against L-arginine decarboxylase (ADC) from Escherichia coli was determined in UV time dependent assay.
For series [4], the system named is Escherichia coli. In words: Compound was evaluated for inhibition of L-arginine decarboxylase (ADC) from Escherichia coli in UV time dependent assay.
Series [5] in a line: Compound was evaluated for binding affinity against L-lysine decarboxylase (LDC) from Bacterium cadaveris in UV time dependent assay.
The test system of series [6] is bacterium cadaveris. In words: Rate of inactivation against L-lysine decarboxylase (LDC) from Bacterium cadaveris was determined in UV time dependent assay.
The test system of series [7] is bacterium cadaveris. In words: Compound was evaluated for inhibition L-lysine decarboxylase (LDC) from Bacterium cadaveris in UV time dependent assay.

On to `C=C[C@](N)(CCCNC(=N)N)C(=O)O` (racemic), for which the half-life in series [1] worked out at 19 min. In series [2], this compound had a Ki of 1800 µM. For the same compound, the K inact in the series on Escherichia coli [3] is 0.036 min⁻¹. In the series on Escherichia coli [4], the Km was 180 µM.

For `C=C[C@](N)(CCCCN)C(=O)O` (racemic), the half-life in series [1] is 35 min. The Ki in series [5] amounted to 500 µM. For the same compound, the K inact in the series with bacterium cadaveris [6] amounted to 0.02 min⁻¹. The Km with bacterium cadaveris [7] stood at 640 µM.

What is called half-life is how long it takes for the measured level to halve. The low end stands for fast loss, the high end for slow loss. Usually Km stands for the concentration of substrate that gives half-maximal velocity.
